In data set [1] the target is hERG (Homo sapiens (Human), UniProt Q12809). Nature of the data set: hERG Manual Patch Clamp Assay. The format is cell-based. The conditions noted are these: human, HEK 293 cells stably expressing hERG channels; for inhibition at 1 µM: pH 7.4, 1 μM, read-out: hERG EP IC50 (% Inhibition at 1 μM). On the procedure:
hERG Manual Patch Clamp Assay
hERG electrophysiology assay: The experimental compounds were assessed for hERG activity on HEK 293 cells stably expressing hERG channels using patch clamp technique. Coverslips plated with hERG expressing cells were placed in the experimental chamber and were perfused with a solution composed of (in mM): 140 NaCl, 4 KCl, 1.8 CaCl2, 1 MgCl2, 10 Glucose, 10 HEPES (pH 7.4, NaOH) at room temperature. Borosilicate patch pipettes had tip resistances of 2-4 Mohms when filled with an internal solution containing: 130 KCl, 1 MgCl2, 1 CaCl2, 10 EGTA, 10 HEPES, 5 ATP-K2 (pH 7.2, KOH). The cells were clamped at −80 mV in whole cell configuration using an Axopatch 200B (Axon instruments, Union City, Calif.) patch clamp amplifier controlled by pClamp (Axon instruments) software. Upon formation of a gigaseal, the following voltage protocol was repeatedly (0.05 Hz) applied to record tail currents: depolarization step from −80 mV to +20 mV for 2 seconds followed by a hyperpolarization step to −65 mV (3 seconds) to elicit tail currents. Compounds were applied after stabilization of tail current. First, tail currents were recorded in presence of extracellular solution alone (control) and subsequently, in extracellular solution containing increasing compound concentrations. Each compound concentration was applied for 2-5 minutes. The percentage inhibition at each concentration was calculated as reduction in peak tail current with respect to the peak tail current recorded in the presence of control solution. Data analysis was performed in a custom made template. The percent inhibitions at different concentrations were plotted to obtain a concentration response curve, which was subsequently fitted with a four parameter equation to calculate hERG IC50 value.
A lower hERG % Inhibition value indicates less inhibition of the hERG current
In general terms: Block of hERG is tested as a sign of cardiac risk.

Data set [2] addresses hROMK (human Kir1.1) (Homo sapiens (Human), UniProt P48048). Nature of the data set: Thallium Flux Assay. The data set is classed as cell-based. As to conditions: CHO T-Rex hROMK stable cell line, 10-point concentration response; read-out: hROMK Th+ Flux IC50. The method in brief:
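CHO T-Rex cells, doxycycline-induced (0.5 μg/ml) one day before, FluxOR dye-loaded; compounds 30 min, then Tl+ stimulus (final 3 mM Tl2SO4, 0.15 mM K2SO4) with ouabain in chloride-free buffer. Fluorescence 488/525 nm for 90 s; IC50 from 10-point curve; DMSO 0.5 or 1%.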

Sequence of hROMK (human Kir1.1) (P48048 whole entry): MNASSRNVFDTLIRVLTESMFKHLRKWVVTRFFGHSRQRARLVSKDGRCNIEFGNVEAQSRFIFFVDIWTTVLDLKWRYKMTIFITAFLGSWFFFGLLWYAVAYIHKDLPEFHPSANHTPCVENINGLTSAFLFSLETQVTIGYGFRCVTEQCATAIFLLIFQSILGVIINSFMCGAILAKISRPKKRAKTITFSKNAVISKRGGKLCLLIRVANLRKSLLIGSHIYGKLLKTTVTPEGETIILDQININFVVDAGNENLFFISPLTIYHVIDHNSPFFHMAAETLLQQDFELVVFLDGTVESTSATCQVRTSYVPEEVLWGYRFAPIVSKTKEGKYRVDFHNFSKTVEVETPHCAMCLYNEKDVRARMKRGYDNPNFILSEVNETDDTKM
Sequence of hERG (Q12809 whole entry): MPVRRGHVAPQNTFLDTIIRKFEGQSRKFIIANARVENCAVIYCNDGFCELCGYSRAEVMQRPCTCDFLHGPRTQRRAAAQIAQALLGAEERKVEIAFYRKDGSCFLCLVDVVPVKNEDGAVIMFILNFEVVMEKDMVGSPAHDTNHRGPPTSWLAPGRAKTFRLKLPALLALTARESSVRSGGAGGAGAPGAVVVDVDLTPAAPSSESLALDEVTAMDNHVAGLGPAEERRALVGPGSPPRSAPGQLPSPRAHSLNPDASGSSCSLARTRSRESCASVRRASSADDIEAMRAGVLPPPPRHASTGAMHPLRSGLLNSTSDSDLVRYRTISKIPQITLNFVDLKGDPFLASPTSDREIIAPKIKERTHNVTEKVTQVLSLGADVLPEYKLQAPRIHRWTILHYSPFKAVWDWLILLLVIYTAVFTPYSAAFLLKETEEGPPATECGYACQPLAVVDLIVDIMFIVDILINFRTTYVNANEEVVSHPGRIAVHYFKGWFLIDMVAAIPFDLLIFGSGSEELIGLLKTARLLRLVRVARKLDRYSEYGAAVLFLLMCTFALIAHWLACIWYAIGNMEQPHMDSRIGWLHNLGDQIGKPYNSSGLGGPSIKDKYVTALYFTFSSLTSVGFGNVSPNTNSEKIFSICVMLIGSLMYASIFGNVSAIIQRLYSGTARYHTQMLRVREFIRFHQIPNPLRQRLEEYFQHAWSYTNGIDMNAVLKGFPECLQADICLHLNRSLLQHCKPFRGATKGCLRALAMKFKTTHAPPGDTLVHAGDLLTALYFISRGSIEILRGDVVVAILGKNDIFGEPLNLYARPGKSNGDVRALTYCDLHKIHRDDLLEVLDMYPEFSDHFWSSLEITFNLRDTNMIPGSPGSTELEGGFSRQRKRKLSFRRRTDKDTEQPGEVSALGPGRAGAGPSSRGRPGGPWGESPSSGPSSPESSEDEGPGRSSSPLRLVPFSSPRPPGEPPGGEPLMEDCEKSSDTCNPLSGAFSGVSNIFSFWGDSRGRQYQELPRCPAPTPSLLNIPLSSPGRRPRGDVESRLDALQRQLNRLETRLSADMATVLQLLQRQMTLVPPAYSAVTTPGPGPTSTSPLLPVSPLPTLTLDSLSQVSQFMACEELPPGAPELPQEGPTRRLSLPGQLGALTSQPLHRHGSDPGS

In general, inhibition refers to the change of the read-out against control, counted positive when it falls. The IC50 is the midpoint of a concentration-inhibition curve. Turning to `Cc1c(C(O)CN2CCc3nc(-n4ncc5c(C#N)cncc54)ncc3C2)ccc2c1COC2=O` (single isomer, unassigned) [Example 43-I, 1-(6-(2-hydroxy-2-(4-methyl-1-oxo-1,3-dihydroisobenzofuran-5-yl)ethyl)-5,6,7,8-tetrahydropyrido[4,3-d]pyrimidin-2-yl)-1H-pyrazolo[3,4-c]pyridine-4-carbonitrile], in data set [1], the inhibition at 1 µM is 16%. In addition, the IC50 in data set [2] was 0.18 µM. Take `Cc1c(C(O)CN2CCc3nc(-n4ccnc4C)ncc3C2)ccc2c1COC2=O` (single isomer, unassigned) [Example 59-I, 5-(1-hydroxy-2-(2-(2-methyl-1H-imidazol-1-yl)-7,8-dihydropyrido[4,3-d]pyrimidin-6(5H)-yl)ethyl)-4-methyl isobenzofuran-1(3H)-one]: the inhibition at 1 µM in data set [1] is 13%. Besides, in data set [1] (pH 7.4, 3 uM, read-out: hERG EP % Inhibition at 3 uM), the inhibition at 3 µM was 27%. Also, in data set [1] (pH 7.4, 10 uM, read-out: hERG EP % Inhibition at 10 uM), the inhibition at 10 µM stood at 51%. Also, in data set [2], the IC50 was 0.224 µM. For the molecule `Cc1c(C(O)CN2CCc3nc(Nc4ccc(C#N)c(F)c4)ncc3C2)ccc2c1COC2=O` (single isomer, unassigned) [Example 28-I, 2-fluoro-4-((6-(2-hydroxy-2-(4-methyl-1-oxo-1,3-dihydroisobenzofuran-5-yl)ethyl)-5,6,7,8-tetrahydropyrido [4,3-d]pyrimidin-2-yl)amino)benzonitrile], the inhibition at 1 µM in data set [1] worked out at 91%. In addition, in data set [2], the IC50 was found to be 0.12 µM. For the molecule `Cc1c(C(O)CN2CCc3nc(-n4nc(C#N)c5ccccc54)ncc3C2)ccc2c1COC2=O` (single isomer, unassigned) [Example 60-I, 1-(6-(2-hydroxy-2-(4-methyl-1-oxo-1,3-dihydroisobenzofuran-5-yl)ethyl)-5,6,7,8-tetrahydropyrido[4,3-d]pyrimidin-2-yl)-1H-indazole-3-carbonitrile], in data set [1], the inhibition at 1 µM came out at 92%. Moreover, the IC50 in data set [2] stood at 0.03 µM.

With `Cc1c(C(O)CN2CCc3nc(-n4ccc5ncccc54)ncc3C2)ccc2c1COC2=O` (single isomer, unassigned) [Example 36-I, 5-(2-(2-(1H-pyrrolo[3,2-b]pyridin-1-yl)-7,8-dihydropyrido[4,3-d]pyrimidin-6(5H)-yl)-1-hydroxyethyl)-4-methyl-isobenzofuran-1(3H)-one], the inhibition at 1 µM in data set [1] worked out at 12%. Moreover, the IC50 in data set [2] stood at 0.18 µM. The like results for `Cc1c(C(O)CN2CCc3nc(-n4cc(C#N)c5ccccc54)ncc3C2)ccc2c1COC2=O` (single isomer, unassigned) [Example 8-I, 1-(6-(2-hydroxy-2-(4-methyl-1-oxo-1,3-dihydroisobenzofuran-5-yl)ethyl)-5,6,7,8-tetrahydropyrido[4,3-d]pyrimidin-2-yl)-1H-indole-3-carbonitrile] were, in that order, 98% and 0.028 µM.

`Cc1c(C(O)CN2CCc3nc(Nc4cccnc4)ncc3C2)ccc2c1COC2=O` (single isomer, unassigned) [Example 54-I, 5-(1-hydroxy-2-(2-(pyridin-3-ylamino)-7,8-dihydropyrido[4,3-d]pyrimidin-6(5H)-yl)ethyl)-4-methylisobenzofuran-1(3H)-one]: the inhibition at 1 µM in data set [1] turned out to be 32%. In data set [2], the IC50 was determined as 0.217 µM. With `Cc1c(C(CO)N2CCc3nc(Nc4ccc(C#N)c(F)c4)ncc3C2)ccc2c1COC2=O` (single isomer, unassigned) [Example 29-II, 2-fluoro-4-((6-(2-hydroxy-1-(4-methyl-1-oxo-1,3-dihydroisobenzofuran-5-yl)ethyl)-5,6,7,8-tetrahydropyrido [4,3-d]pyrimidin-2-yl)amino)benzonitrile], the IC50 in data set [2] turned out to be 2.1 µM. `Cc1c(CN2CCc3nc(Nc4ccc(C#N)c(F)c4)ncc3C2)ccc2c1COC2=O` [Example 26, 2-fluoro-4-((6-((4-methyl-1-oxo-1,3-dihydroisobenzofuran-5-yl)methyl)-5,6,7,8-tetrahydropyrido[4,3-d]pyrimidin-2-yl)amino) benzonitrile]: the IC50 in data set [2] worked out at 0.27 µM.

For `Cc1c(C(O)CN2CCc3nc(-n4cc(C#N)c5ccccc54)ncc3C2)ccc2c1COC2=O` (single isomer, unassigned) [Example 8-II, 1-(6-(2-hydroxy-2-(4-methyl-1-oxo-1,3-dihydroisobenzofuran-5-yl)ethyl)-5,6,7,8-tetrahydropyrido[4,3-d]pyrimidin-2-yl)-1H-indole-3-carbonitrile], the IC50 in data set [2] stood at 0.083 µM. The same measure, in the same setting: with `N#Cc1ccc(Nc2ccc3c(c2)CCN(CCc2ccc4c(c2)COC4=O)C3)cc1F` [Example 6, 2-fluoro-4-((2-(2-(1-oxo-1,3-dihydroisobenzofuran-5-yl)ethyl)-1,2,3,4-tetrahydroisoquinolin-6-yl)amino)benzonitrile] the figure was 0.12 µM.

In the case of `Cn1c(=O)oc2ccc(CN3CCc4cc(Nc5ccc(C#N)c(F)c5)ccc4C3)cc21` [Example 48, 2-fluoro-4-((2-((3-methyl-2-oxo-2,3-dihydrobenzo[d]oxazol-5-yl)methyl)-1,2,3,4-tetrahydroisoquinolin-6-yl)amino)benzonitrile], the IC50 in data set [2] amounted to 0.6 µM. For the molecule `Cc1c(C(O)CN2CCc3nc(-n4ncc5c(C#N)cccc54)ncc3C2)ccc2c1COC2=O` (single isomer, unassigned) [Example 12-I, 1-(6-(2-hydroxy-2-(4-methyl-1-oxo-1,3-dihydroisobenzofuran-5-yl)ethyl)-5,6,7,8-tetrahydropyrido[4,3-d]pyrimidin-2-yl)-1H-indazole-4-carbonitrile], the IC50 in data set [2] was 0.038 µM.

In the case of `Cc1c(C(O)CN2CCc3nc(-n4ccc5c(C#N)ccnc54)ncc3C2)ccc2c1COC2=O` (single isomer, unassigned) [Example 19-I, 1-(6-(2-hydroxy-2-(4-methyl-1-oxo-1,3-dihydroisobenzofuran-5-yl)ethyl)-5,6,7,8-tetrahydropyrido[4,3-d]pyrimidin-2-yl)-1H-pyrrolo[2,3-b]pyridine-4-carbonitrile], in data set [2], the IC50 was found to be 0.46 µM.

On to `Cc1c(CN2CCc3cc(Nc4ncc(C#N)cn4)ccc3C2)ccc2c1COC2=O` [Example 37, 2-((2-((4-methyl-1-oxo-1,3-dihydro-isobenzofuran-5-yl)methyl)-1,2,3,4-tetrahydroisoquinolin-6-yl)amino) pyrimidine-5-carbonitrile], for which the IC50 in data set [2] was 4.9 µM. On the same count and under the same terms, with `Cc1c(CN2CCc3cc(Nc4ccn5nccc5n4)ccc3C2)ccc2c1COC2=O` [Example 38, 4-methyl-5-((6-(pyrazolo[1,5-a]pyrimidin-5-ylamino)-3,4-dihydroisoquinolin-2(1H)-yl)methyl)isobenzofuran-1(3H)-one] the figure was 1.9 µM. On the same count and under the same terms, with `Cn1c(=O)oc2ccc(C(O)CN3CCc4nc(-n5ccc6c(C#N)cccc65)ncc4C3)cc21` (single isomer, unassigned) [Example 22-I, 1-(6-(2-hydroxy-2-(3-methyl-2-oxo-2,3-dihydrobenzo[d]oxazol-5-yl)ethyl)-5,6,7,8-tetrahydropyrido[4,3-d]pyrimidin-2-yl)-1H-indole-4-carbonitrile] the figure was 1 µM; with `N#Cc1cnc2c(ccn2-c2ncc3c(n2)CCN(Cc2ccc4c(c2)COC4=O)C3)c1` [Example 46, 1-(6-((1-oxo-1,3-dihydroisobenzofuran-5-yl)methyl)-5,6,7,8-tetrahydropyrido[4,3-d]pyrimidin-2-yl)-1H-pyrrolo[2,3-b] pyridine-5-carbonitrile], 1.5 µM; with `Cc1c(N2CCc3cc(NCc4ccc(C#N)c(F)c4)ccc3C2)ccc2c1COC2=O` [Example 10, 2-fluoro-4-(((2-(4-methyl-1-oxo-1,3-dihydroisobenzofuran-5-yl)-1,2,3,4-tetrahydroisoquinolin-6-yl)amino)methyl)benzonitrile], 4.6 µM. The same measure, in the same setting: the same measure for `Cc1c(C(O)CN2CCc3nc(-n4ccc5c(C#N)cncc54)ncc3C2)ccc2c1COC2=O` (single isomer, unassigned) [Example 42-II, 1-(6-(2-hydroxy-2-(4-methyl-1-oxo-1,3-dihydroisobenzofuran-5-yl)ethyl)-5,6,7,8-tetrahydropyrido[4,3-d]pyrimidin-2-yl)-1H-pyrrolo[2,3-c]pyridine-4-carbonitrile]: 0.21 µM.

These data come from patent US10851108B2, “Substituted bicyclic heterocyclic compounds” (BRISTOL-MYERS SQUIBB COMPANY, priority 2016, dated 2020).
